Source: the NIST ThermoML archive (doi:10.1021/je049610v)
± gives the expanded uncertainty stated by the source.

What was measured:
[1] = xn = mol fraction of the nth substance listed; settings: 101 kPa, Liquid
[2] = refractive index (Na D-line) (dimensionless); xn = mol fraction of the nth substance listed; settings: 101 kPa, Liquid

C1COCCO1 [1,4-dioxane] + COc1ccccc1
x2 = 0
Settings	mass density, 298.15 K [kg/m3]	mass density, 303.15 K [kg/m3]	mass density, 308.15 K [kg/m3]	refractive index, 298.15 K	refractive index, 303.15 K	refractive index, 308.15 K	speed of sound, 298.15 K [m/s]	viscosity, 298.15 K [mPa·s]	viscosity, 303.15 K [mPa·s]	viscosity, 308.15 K [mPa·s]
[1]	1028.3 ± 2.1	1023.1 ± 2.2	1017.8 ± 2.2	–	–	–	1345 ± 7	1.415 ± 0.044	1.171 ± 0.1	1.068 ± 0.034
[2]	–	–	–	1.4181 ± 0.0024	1.4176 ± 0.0024	1.4141 ± 0.0024	–	–	–	–

COc1ccccc1 [anisole] + C1COCCO1
Settings	mass density, 298.15 K [kg/m3]	mass density, 303.15 K [kg/m3]	mass density, 308.15 K [kg/m3]	refractive index, 298.15 K	refractive index, 303.15 K	refractive index, 308.15 K	speed of sound, 298.15 K [m/s]	viscosity, 298.15 K [mPa·s]	viscosity, 303.15 K [mPa·s]	viscosity, 308.15 K [mPa·s]
[1], x1 = 0.0982	1023.3 ± 2.1	1017.9 ± 2.2	1012.9 ± 2.2	–	–	–	1355 ± 8	1.342 ± 0.042	1.185 ± 0.037	1.028 ± 0.033
[1], x1 = 0.199	1018.4 ± 2.1	1013.2 ± 2.1	1008.2 ± 2.2	–	–	–	1364 ± 8	1.267 ± 0.04	1.128 ± 0.036	0.99 ± 0.032
[1], x1 = 0.296	1014 ± 2.1	1008.6 ± 2.1	1003.9 ± 2.2	–	–	–	1371 ± 8	1.19 ± 0.038	1.074 ± 0.034	0.957 ± 0.031
[1], x1 = 0.398	1009.7 ± 2	1004.6 ± 2.1	999.8 ± 2.2	–	–	–	1378 ± 8	1.12 ± 0.036	1.028 ± 0.033	0.936 ± 0.03
[1], x1 = 0.5046	1005.5 ± 2	1000.6 ± 2.1	995.7 ± 2.2	–	–	–	1385 ± 8	1.072 ± 0.034	0.994 ± 0.032	0.917 ± 0.03
[1], x1 = 0.6044	1001.8 ± 2	996.9 ± 2.1	992.1 ± 2.2	–	–	–	1390 ± 8	1.048 ± 0.034	0.976 ± 0.032	0.904 ± 0.03
[1], x1 = 0.7057	998.3 ± 2	993.5 ± 2.1	988.6 ± 2.2	–	–	–	1396 ± 8	1.042 ± 0.033	0.969 ± 0.031	0.897 ± 0.029
[1], x1 = 0.8028	995.1 ± 2	990.5 ± 2.1	985.4 ± 2.2	–	–	–	1401 ± 8	1.032 ± 0.033	0.957 ± 0.031	0.883 ± 0.029
[1], x1 = 0.9005	991.9 ± 2	987.4 ± 2.1	982.4 ± 2.2	–	–	–	1405 ± 8	1.011 ± 0.033	0.941 ± 0.031	0.87 ± 0.029
[1], x1 = 1	988.9 ± 2	984.1 ± 2.1	979.4 ± 2.1	–	–	–	1410 ± 8	0.992 ± 0.032	0.919 ± 0.03	0.853 ± 0.028
[2], x1 = 0.0982	–	–	–	1.432 ± 0.0024	1.4295 ± 0.0024	1.427 ± 0.0024	–	–	–	–
[2], x1 = 0.199	–	–	–	1.4434 ± 0.0024	1.4408 ± 0.0024	1.4383 ± 0.0024	–	–	–	–
[2], x1 = 0.296	–	–	–	1.4538 ± 0.0024	1.4514 ± 0.0024	1.4496 ± 0.0024	–	–	–	–
[2], x1 = 0.398	–	–	–	1.4647 ± 0.0024	1.4628 ± 0.0024	1.4603 ± 0.0024	–	–	–	–
[2], x1 = 0.5046	–	–	–	1.475 ± 0.0024	1.472 ± 0.0024	1.47 ± 0.0024	–	–	–	–
[2], x1 = 0.6044	–	–	–	1.484 ± 0.0024	1.4814 ± 0.0024	1.4789 ± 0.0024	–	–	–	–
[2], x1 = 0.7057	–	–	–	1.4925 ± 0.0024	1.4899 ± 0.0024	1.4872 ± 0.0024	–	–	–	–
[2], x1 = 0.8028	–	–	–	1.5009 ± 0.0024	1.4982 ± 0.0024	1.4956 ± 0.0024	–	–	–	–
[2], x1 = 0.9005	–	–	–	1.5084 ± 0.0024	1.5054 ± 0.0024	1.5025 ± 0.0024	–	–	–	–
[2], x1 = 1	–	–	–	1.5148 ± 0.0024	1.5124 ± 0.0024	1.5092 ± 0.0024	–	–	–	–

OCCCl [1-chloro-2-hydroxyethane] + COc1ccccc1
Settings	mass density, 298.15 K [kg/m3]	mass density, 303.15 K [kg/m3]	mass density, 308.15 K [kg/m3]	refractive index, 298.15 K	refractive index, 303.15 K	refractive index, 308.15 K	speed of sound, 298.15 K [m/s]	viscosity, 298.15 K [mPa·s]	viscosity, 303.15 K [mPa·s]	viscosity, 308.15 K [mPa·s]
[1], x2 = 0	1200.9 ± 2.5	1192.5 ± 2.6	1187.1 ± 2.7	–	–	–	1358 ± 8	3.104 ± 0.091	2.669 ± 0.079	2.347 ± 0.07
[1], x2 = 0.103	1165.8 ± 2.4	1158.6 ± 2.5	1153.9 ± 2.6	–	–	–	1365 ± 8	2.6 ± 0.077	2.334 ± 0.069	2.068 ± 0.062
[1], x2 = 0.209	1134.5 ± 2.4	1129 ± 2.4	1123.7 ± 2.5	–	–	–	1372 ± 8	2.13 ± 0.064	1.943 ± 0.059	1.755 ± 0.053
[1], x2 = 0.313	1107.6 ± 2.3	1102.5 ± 2.4	1097.5 ± 2.4	–	–	–	1378 ± 8	1.778 ± 0.054	1.631 ± 0.05	1.485 ± 0.046
[1], x2 = 0.395	1088.7 ± 2.2	1083.9 ± 2.3	1078.8 ± 2.4	–	–	–	1382 ± 8	1.583 ± 0.049	1.452 ± 0.045	1.32 ± 0.041
[1], x2 = 0.49	1068.8 ± 2.2	1064.3 ± 2.3	1058.9 ± 2.4	–	–	–	1388 ± 8	1.418 ± 0.044	1.289 ± 0.04	1.16 ± 0.037
[1], x2 = 0.59	1049.8 ± 2.1	1044.8 ± 2.2	1040.1 ± 2.3	–	–	–	1392 ± 8	1.269 ± 0.04	1.158 ± 0.037	1.046 ± 0.034
[1], x2 = 0.69	1032.5 ± 2.1	1027.5 ± 2.2	1023 ± 2.3	–	–	–	1397 ± 8	1.155 ± 0.037	1.064 ± 0.034	0.972 ± 0.031
[1], x2 = 0.797	1015.9 ± 2.1	1010 ± 2.1	1006.6 ± 2.2	–	–	–	1402 ± 8	1.087 ± 0.035	1.004 ± 0.032	0.921 ± 0.03
[1], x2 = 0.898	1001.9 ± 2	996.1 ± 2.1	992.5 ± 2.2	–	–	–	1406 ± 8	1.007 ± 0.032	0.936 ± 0.03	0.865 ± 0.028
[2], x2 = 0	–	–	–	1.4411 ± 0.0024	1.438 ± 0.0024	1.4326 ± 0.0024	–	–	–	–
[2], x2 = 0.103	–	–	–	1.4495 ± 0.0024	1.4793 ± 0.04	1.4468 ± 0.0024	–	–	–	–
[2], x2 = 0.209	–	–	–	1.461 ± 0.0024	1.4586 ± 0.0024	1.4564 ± 0.0024	–	–	–	–
[2], x2 = 0.313	–	–	–	1.4712 ± 0.0024	1.4684 ± 0.0024	1.4652 ± 0.0024	–	–	–	–
[2], x2 = 0.395	–	–	–	1.4767 ± 0.0024	1.4745 ± 0.0024	1.4723 ± 0.0024	–	–	–	–
[2], x2 = 0.49	–	–	–	1.4836 ± 0.0024	1.4807 ± 0.0024	1.4778 ± 0.0024	–	–	–	–
[2], x2 = 0.59	–	–	–	1.4899 ± 0.0024	1.4879 ± 0.0024	1.4859 ± 0.0024	–	–	–	–
[2], x2 = 0.69	–	–	–	1.4978 ± 0.0024	1.4951 ± 0.0024	1.4923 ± 0.0024	–	–	–	–
[2], x2 = 0.797	–	–	–	1.5034 ± 0.0024	1.5011 ± 0.0024	1.4999 ± 0.0024	–	–	–	–
[2], x2 = 0.898	–	–	–	1.5094 ± 0.0024	1.5067 ± 0.0024	1.5041 ± 0.0024	–	–	–	–
